Marks after values point to notes of the source that are not given here.
Key:
PSA mRNA in LNCaP cells = assay: PSA mRNA expression level in LNCaP cells (real-time PCR); format: cell-based, human; settings: 10^−5M, 24 hours, control (DMSO) 1.0
Procedure: (§1) 1) Extraction of Total RNA
(§2) After respectively culturing the LNCaP cells and NIH-3T3-L1 cells co-transfected in 1) to 3) above in 6-well plates, the cells were cultured for 24 hours in EMEM or RPMI 1640 containing 10% fetal calf serum treated with dextran-charcoal and a test compound (dissolved in a small amount of DMSO). Subsequently, total RNA was respectively extracted using Isogen (Wako Pure Chemical Industries).
(§3) 5 μg aliquots of each total RNA obtained in 1) above were reverse-transcribed to first strand cDNA using a Superscript III Kit (Invitrogen) and brought to a final volume of 20 μL. Real-time PCR was carried out using LightCycler FastStart DNA Master SYBR Green I (Roche Diagnostic) in order to quantify expression of PSA mRNA in LNCaP cells and UCP-1 mRNA in NIH-3T3-L1 cells. PCR was carried out under the following conditions in 20 μL of reaction mixture: 50 cycles consisting of denaturing for 3 seconds at 95° C., annealing for 10 seconds at 60° C. and elongating for 25 seconds at 72° C. β-actin mRNA was also simultaneously amplified for use as an internal standard. Real-time PCR value for each transcription product were calculated as a relative ratio to β-actin.

[1] = system: UCP-1 mRNA in NIH-3T3-L1 cells; assay: UCP-1 mRNA expression level in NIH-3T3-L1 cells (real-time PCR); format: cell-based, mouse; settings: 10^−5M, 24 hours, control (DMSO) 1.0
Procedure: as §1, §2, §3

B6 mice on high-fat diet [2] = assay: High-fat diet B6 mice, 16 weeks (body weight, serum glucose, serum insulin, food intake, visceral fat); format: in vivo, mouse; settings: 10 mg/kg s.c. every other day
Procedure: (§4) 9-week-old B6 mice were divided into a control group, high-fat diet group and high-fat diet+compound of formula (Ia) group of 10 animals each, and housed and observed for 16 weeks. During this period, the compound of formula (Ia) was subcutaneously injected at 10 mg/kg every other day, body weights were measured once a week, and food intake was measured once every 4 weeks.
After 16 weeks, the body weights, bone mineral densities, fat distributions and exercise levels of the mice were measured, followed by collecting blood samples and finally sacrificing the animals and collecting their organs. The average value of body weight, serum glucose concentration and serum insulin concentration of each group after 16 weeks are shown in the following Table 17.

B6 mice on high-fat diet [3] = assay: Glucose tolerance test in high-fat diet B6 mice; format: in vivo, mouse; settings: high-fat diet mice after 16 weeks, glucose 1 g/kg
Procedure: as §4
In addition, glucose tolerance tests were also carried out on the mice after housing for 16 weeks. The mice were divided into groups of 5 mice each, injected at 1 g/kg, and glucose value was then measured over time.

GFP-AR [4] = target: T1, GFP-AR (Homo sapiens, UniProt P10275); assay: Subnuclear localization of GFP-AR in LNCaP cells; format: cell-based; set-up: expressed in transfected cells; host or cells: LNCaP cells; settings: 10^−5 M, observed 3 hours later, FIG. 2
T1 sequence (P10275 1-920): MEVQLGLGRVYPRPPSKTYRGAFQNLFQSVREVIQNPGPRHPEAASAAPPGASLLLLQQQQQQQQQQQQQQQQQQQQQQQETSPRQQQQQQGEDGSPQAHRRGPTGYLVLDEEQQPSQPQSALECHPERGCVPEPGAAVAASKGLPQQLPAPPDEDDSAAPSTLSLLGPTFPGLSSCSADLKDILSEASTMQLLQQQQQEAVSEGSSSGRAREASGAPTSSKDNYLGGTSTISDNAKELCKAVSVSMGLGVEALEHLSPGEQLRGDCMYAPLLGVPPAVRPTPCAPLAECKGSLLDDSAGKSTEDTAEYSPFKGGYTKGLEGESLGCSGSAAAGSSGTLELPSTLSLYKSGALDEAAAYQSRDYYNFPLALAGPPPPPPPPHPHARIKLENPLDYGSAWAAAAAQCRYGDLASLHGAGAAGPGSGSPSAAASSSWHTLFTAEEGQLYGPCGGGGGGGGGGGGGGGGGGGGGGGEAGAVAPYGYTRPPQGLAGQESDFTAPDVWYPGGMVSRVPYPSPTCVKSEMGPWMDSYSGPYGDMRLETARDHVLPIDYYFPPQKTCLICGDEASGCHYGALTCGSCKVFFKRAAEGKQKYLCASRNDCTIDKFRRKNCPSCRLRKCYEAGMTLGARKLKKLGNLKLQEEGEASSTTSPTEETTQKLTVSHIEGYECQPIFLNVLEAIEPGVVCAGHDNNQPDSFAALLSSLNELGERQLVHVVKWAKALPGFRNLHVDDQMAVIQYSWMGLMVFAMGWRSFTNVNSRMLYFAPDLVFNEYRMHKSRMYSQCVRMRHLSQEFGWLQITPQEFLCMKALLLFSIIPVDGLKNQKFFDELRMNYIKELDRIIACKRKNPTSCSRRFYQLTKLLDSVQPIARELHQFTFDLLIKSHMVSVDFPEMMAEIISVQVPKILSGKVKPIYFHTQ

GFP-AR [5] = target: T1, GFP-AR; assay: Subnuclear localization of GFP-AR in NIH-3T3-L1 cells; format: cell-based, mouse; set-up: expressed in transfected cells; host or cells: NIH-3T3-L1 cells; settings: 10^−5 M, FIG. 4

Compound: CC(=O)[C@H]1CCC2C3CCc4c(C)cccc4C3CC[C@@]21C (stereo partly shown) [Compound of formula (Ia)]
- PSA mRNA (relative ratio to β-actin mRNA) (PSA mRNA in LNCaP cells): 0.8
- UCP-1 mRNA (relative ratio to β-actin mRNA) [1]: 2.1*
- Body weight versus high-fat diet group (in words) (B6 mice on high-fat diet [2]; 16 weeks): significantly lower than in the high-fat diet group
- Increase of serum glucose and serum insulin concentrations due to the high-fat diet (in words) (B6 mice on high-fat diet [2]; 16 weeks): significantly inhibited
- Accumulation of visceral fat (in words) (B6 mice on high-fat diet [2]; 16 weeks, FIG. 6): roughly the same as that of the rat of the ordinary diet group
- Serum insulin concentration (average) (B6 mice on high-fat diet [2]; after 16 weeks, high-fat diet alone 0.46, ordinary diet 0.13): 0.27^# ng/mL
- Body weight (average) (B6 mice on high-fat diet [2]; after 16 weeks, high-fat diet alone 36.6, ordinary diet 30.7): 34.9^### g
- Serum glucose concentration (average) (B6 mice on high-fat diet [2]; after 16 weeks, high-fat diet alone 113.2, ordinary diet 75): 82.2^## mg/dL
- Glucose value in glucose tolerance test (B6 mice on high-fat diet [3]; 0 min after injection): 82.2^## mg/dL
- Glucose value in glucose tolerance test (B6 mice on high-fat diet [3]; 15 min after injection): 293.6 mg/dL
- Glucose value in glucose tolerance test (B6 mice on high-fat diet [3]; 30 min after injection): 327.6* mg/dL
- Glucose value in glucose tolerance test (B6 mice on high-fat diet [3]; 60 min after injection): 249.4 mg/dL
- Glucose value in glucose tolerance test (B6 mice on high-fat diet [3]; 90 min after injection): 262.0* mg/dL
- Glucose value in glucose tolerance test (B6 mice on high-fat diet [3]; 120 min after injection): 163.0 mg/dL
- GFP-AR nuclear translocation and foci (dots) formation (GFP-AR [4]): clear foci (dots) were not formed
- GFP-AR nuclear translocation and foci (dots) formation (GFP-AR [5]): formed the subnuclear foci (dots)

From patent US8623909B2, “Prophylactic/therapeutic agents for lifestyle-related diseases” (priority 2008, dated 2014)
